According to PubChem BioAssay AID1973 (The Scripps Research Institute Molecular Screening Center, 2009):
Activity calls are given as the source filed them.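 The calls were made as follows: active = IC50 dose giving half inhibition of the KLF5 reporter of 10 micromolar or lower; inactive = IC50 above 10 micromolar.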

System: DLD-1 KLF5 promoter-luciferase reporter, luminescence
Test: KLF5 promoter reporter inhibitors, dose response, luminescence, DLD-1 cells, luciferase reporter (AID 1973)

| SMILES | IC50 |
| --- | --- |
| O=C(O)CSCC(=O)Nc1ccc(C2CCCCC2)cc1 | 1290 nM |
| Nc1ccc(-c2nc3ccc(C(=O)O)cc3s2)cc1 | 383 nM |
| Cc1ccc(S(=O)(=O)Nc2cc(Cl)c(O)c3ncccc23)cc1 | 1820 nM |
| NS(=O)(=O)c1ccc(N=Nc2ccc(O)c3ncccc23)cc1 | 3180 nM |
| Oc1ccc(N=Nc2ccccc2C(F)(F)F)c2cccnc12 | 1900 nM |
| COc1ccc(-n2ncc3c(N4CCCCC4)ncnc32)cc1 | 1360 nM |
| c1ccc(-c2ccc(-c3nc(-c4ccccn4)no3)cc2)cc1 | 360 nM |
| Oc1cccc(/C=N/Nc2ccc(Cl)nn2)c1O | 1900 nM |
| COc1cccc(/C=N/Nc2nccnc2Cl)c1O | 2080 nM |
| Cc1cc(C(=O)CN2C(=O)c3ccccc3S2(=O)=O)c(C)n1CC1CCCO1 (stereo unspecified) | 267 nM |
| CC(C)CC(NC(=O)CCCNC(=O)CCC(=O)OC1O[C@H]2OC3(C)CC[C@H]4[C@H](C)CCC(C1C)C24OO3)C(=O)O (stereo partly specified) | 502 nM |
| Cc1ccc(-c2nnc(SCC(=O)Nc3ccccc3F)o2)cc1 | 2500 nM |
| CCNC(=S)NNC(=O)c1cc(-c2ccc(OCC)cc2)nc2ccccc12 | 4170 nM |
| CC(C)(C)C(=O)Nc1cc2nn(-c3ccccc3)nc2cc1Cl | 98.8 nM |
| CC1CCN(Cc2c(C(=O)N/N=C/c3ccccc3O)nnn2-c2nonc2N)CC1 | 1810 nM |
| CCCS(=O)(=O)c1cnc(C2COc3ccccc3O2)nc1N (stereo unspecified) | 1400 nM |
| C[C@@H]1O[C@@H](O[C@H]2C[C@@H](O)[C@]3(CO)[C@H]4[C@H](O)C[C@]5(C)[C@@H](C6COC(=O)C6)CC[C@]5(O)[C@@H]4CC[C@]3(O)C2)[C@H](O)[C@H](O)[C@H]1O (stereo partly specified) | 3850 nM |
| COc1cc(N=Cc2c(O)[nH]c3ccccc23)cc(OC)c1OC | 1030 nM |
| Cc1cc(C(=O)COC(=O)c2ccccc2O)c(C)n1Cc1cccs1 | 563 nM |
| Cc1ccc2nc(NC(=O)CCCc3nc4ccccc4s3)sc2c1 | 207 nM |
| CCOc1cc(Br)cc(/C=N/NC(=O)c2cccnc2)c1O | 1660 nM |
| CCc1ccn2cc(-c3ccc4c(c3)OCO4)nc2c1 | 1900 nM |
| COc1ccc2[nH]c(C(=O)N/N=C/c3ccc(OC)c(O)c3)cc2c1 | 5120 nM |
| C#Cc1ccc([C@@H]2C=C(C(=O)N3CCN(Cc4ccccc4)CC3)O[C@H](OCCCCO)C2)cc1 | 2720 nM |

| SMILES | IC50 |
| --- | --- |
| CC(C)(C)c1ccc(C(=O)Nc2sc3c(c2C(=O)O)CCC3)cc1 | 1160 nM |
| Cn1cccc1-c1cc(C(=O)N/N=C/c2cc(Br)ccc2O)[nH]n1 | 1500 nM |
| CCCc1ccc(C(=O)O/N=C(\N)c2ccccn2)cc1 | 107 nM |
| O=C(Nc1cccnc1)c1cccs1 | 950 nM |
| CC(C)(C)c1ccc(-c2noc(CCC(=O)Nc3cccnc3)n2)cc1 | 104 nM |
| CN(C)c1ccc(/C=C/c2nc3ccccc3c(=O)[nH]2)cc1 | 1510 nM |
| Cc1ccc2[nH]c(C(=O)N/N=C/c3ccccc3O)c(C)c2c1 | > 39800 nM (inactive) |
| CCc1ccn2cc(-c3cc(-c4ccccc4)no3)nc2c1 | 660 nM |
| O=C(CSc1n[nH]c(-c2ccccn2)n1)Nc1ccc(Cl)cc1 | 4380 nM |
| CCCc1ccc(-c2ccc(/C=C/C(=O)O)cc2)nc1 | 416 nM |
| COc1cccc(/C=N/NC(=O)c2cc3c(OC)ccc(OC)c3[nH]2)c1O | 2460 nM |
| Cc1nc2ccccn2c1-c1csc(Nc2cccc(O)c2)n1 | 395 nM |
| CC(C)(C)c1ccc(-c2noc(CCC(=O)NCC3CCCO3)n2)cc1 (stereo unspecified) | 1810 nM |
| O=C(c1cc(-c2ccccc2Cl)on1)N1CCCC1 | 3480 nM |
| N/C(=N\OCc1ccc([N+](=O)[O-])cc1)c1ccccn1 | 1050 nM |
| COc1cccc(/C=N/Nc2ccc(C(=O)O)cc2)c1O | 43.1 nM |
| COc1ccc(Cl)cc1C(=O)Nc1nc2ccccc2[nH]1 | 4030 nM |
| O=C(NCCc1ccccc1)c1ccc2c(c1)OCCO2 | 1060 nM |
| COc1ccc(C(=O)Nc2nc3ccccc3s2)c(OC)c1 | 2340 nM |
| CCc1ccc(NC(=O)c2cnn3ccccc23)cc1 | 1860 nM |
| CCN1C=CC(=C2C(=O)c3ccccc3C2=O)C=C1 | 950 nM |
| COc1ccc(/C=N/NC(=O)CCn2c3ccccc3c3ccccc32)cc1O | 1850 nM |
| CN(C)c1ccc(Nc2nc(N)c3ccccc3n2)cc1 | 2520 nM |
| COc1ccc2nc(SCC(=O)NC3CCCC3)c(C)cc2c1 | 1360 nM |

| SMILES | IC50 |
| --- | --- |
| Cc1ccc(C(=O)N/N=C/c2c(O)ccc3ccccc23)cn1 | 1490 nM |
| Oc1cccc2ccc(Nc3ccccn3)nc12 | 2450 nM |
| CC(C)(C)c1ccc(C(=O)O/N=C(\N)c2ccccc2)cc1 | 1750 nM |
| O=C(NC1=NCCS1)C1COc2ccccc2O1 (stereo unspecified) | 2630 nM |
| Cc1ccc(C(=O)Nc2cnc3ccccc3c2)cc1 | 735 nM |
| COC(=O)c1c(N)sc(C(=O)NCCc2ccccc2)c1C | 1930 nM |
| CN(CCO)c1ccc(/C=N/Nc2nncc3ccccc23)cc1 | 1360 nM |
| O=C(N/N=C/c1cc(Br)ccc1OC(=O)c1ccc(Br)cc1)c1ccncc1 | 1540 nM |
| O=C1C(Nc2ccccc2)=C(N2CCCCC2)C(=O)c2ccccc21 | 13400 nM (inactive) |
| COc1cccc(/C=N/Nc2ncc(C(F)(F)F)cc2Cl)c1O | 562 nM |
| CCOC(=O)c1sc(NC(=O)c2cc3c(s2)CCC(C)C3)nc1C (stereo unspecified) | 109 nM |
| CNC1=C(N(C(C)=O)c2ccc(Br)cc2)C(=O)c2ccccc2C1=O | 1860 nM |
| COC(=O)c1ccc(Oc2cc(C)nc(-n3nc(C)cc3C)n2)cc1 | 520 nM |
| Cc1ccc(C(=O)O/N=C(\N)c2ccccn2)c(C)c1 | 1420 nM |
| O=C(Nc1nc2cc3c(cc2s1)OCCO3)c1ccco1 | 1550 nM |
| O=C(NCCc1ccccc1F)c1ccc2c(c1)OCCO2 | 424 nM |
| COc1cc(/C=C/[N+](=O)[O-])ccc1OCc1cccc(C(=O)O)c1 | 2070 nM |
| COc1ccc(OCc2cccc(C(=O)Nn3cc([N+](=O)[O-])cn3)c2)cc1 | 332 nM |
| COC(=O)c1nn(-c2ccc3c(c2)CCN3C(C)=O)cc1O | 2040 nM |
| O=C(Nc1nccs1)c1cc2c(s1)CCCCC2 | 2860 nM |
| O=C(NCCc1ccccc1)c1ccc2c(c1)OCCCO2 | 421 nM |
| O=C(CCCc1ccccc1)c1ccc2c(c1)OCCO2 | 1240 nM |
| O=C(O)c1cccc(COc2ccc3c(c2)CCC3)c1 | 695 nM |
| O=C(Nc1cccc(C(=O)O)c1)Nc1ccc2c(c1)OCO2 | 838 nM |

| SMILES | IC50 |
| --- | --- |
| COc1cc(/C=N/O)ccc1OCc1ccc(C(=O)O)cc1 | 820 nM |
| CCOc1cccc(/C=N/NC(=O)c2ccc3c(c2)OCCO3)c1O | 1650 nM |
| CC(C)(C)c1ccc(-c2noc(CCC(N)=O)n2)cc1 | 133 nM |
| O=C(Nc1ccc(N2CCCCC2)cc1)c1ccccn1 | 703 nM |
| Cc1ccc(C(=O)O/N=C(\N)c2ccccn2)c(Cl)c1 | 2800 nM |
| Cc1cc(-c2ccccc2)n(-c2cc(N/N=C/c3ccccc3O)ncn2)n1 | 998 nM |
| COc1cccc(/C=N/Nc2ccc([N+](=O)[O-])cn2)c1O | 4090 nM |
| COc1ccccc1N1CCN(Cc2cc(Br)c(O)c3ncccc23)CC1 | 2680 nM |
| c1ccc(-c2noc(-c3ccc4ccccc4c3)n2)nc1 | 798 nM |
| COc1ccc(N/N=C/c2c(C(=O)O)ccc3ccccc23)cc1 | 1690 nM |
| CN1CCN(c2ccc(-c3ccc4ccccc4n3)cc2)CC1 | 166 nM |
| CC(C)(C)c1ccc(C(=O)O/N=C(\N)c2ccccn2)cc1 | 270 nM |
| CCCCN=C[C@]12CCC(O)CC1(O)CCC1[C@@H]2CC[C@]2(C)[C@H](C3C=CC(=O)O3)CCC12O (stereo partly specified) | 2020 nM |
| COc1ccc(OC)c(N/C=C/C(=O)c2ccccc2)c1 | 1690 nM |
| CC(C)(C)C(=O)Nc1ccc(NC(=O)c2ccco2)nc1 | 960 nM |
| COc1ccc(OC)c(Nc2cc(C)nc3nc(C)nn23)c1 | 486 nM |
| O=C(CN1C(=O)c2ccccc2S1(=O)=O)c1ccc(Cl)cc1Cl | 1690 nM |
| Nc1c(C(=O)Nc2cccc(C(=O)O)c2)sc2nc3c(cc12)CCCC3 | 1470 nM |
| Cc1ccc(C(=O)Nc2nc3ccccc3[nH]2)cc1 | 3530 nM |
| CCOC(=O)c1sc(NC(=O)c2sc(C)nc2C)nc1C | > 39800 nM (inactive) |
| Cc1ccc(C(=O)N/N=C/c2cc(Br)ccc2O)cn1 | 1910 nM |
| O=C(N/N=C/c1c(O)ccc2ccccc12)c1ccc(Br)o1 | 1780 nM |
| C[C@]12CCC3C(CCC4=CC(O)CC[C@@]43/C=N/O)C1(O)CCC2C1=CC(=O)OC1 (stereo partly specified) | 2200 nM |
| COc1ccc(OC)c2[nH]c(C(=O)N/N=C/c3ccccc3O)cc12 | 1670 nM |

| SMILES | IC50 |
| --- | --- |
| Clc1ccccc1/C=C/c1nc(-c2ccccn2)no1 | 1540 nM |
| COC(=O)C1=C(CN2CCCc3ccccc32)NC(=O)NC1c1ccc(F)cc1 (stereo unspecified) | 3050 nM |
| O=C(N/N=C/c1cccc(Oc2ccccc2)c1)c1ccccc1F | 1240 nM |
| O=C(O)c1ccc(N/N=C/c2c[nH]c3ccccc23)cc1 | 1520 nM |
| O=C(N/N=C/c1cc(O)ccc1Br)c1cccnc1 | 1710 nM |
| CN(C)c1ccc(/C=N/Nc2cccc(C(=O)O)c2)cc1 | 617 nM |
| Cc1cc(/C=N/Nc2nc(N)ncc2[N+](=O)[O-])c(C)n1-c1ccccc1F | 401 nM |
| O=C(N/N=C/c1c(O)ccc2ccccc12)c1cccnc1 | 1620 nM |
| CC1CCN(c2ccc(-c3cccs3)nn2)CC1 | 1260 nM |
| C/C(=N\NC(=O)c1n[nH]c2c1CCC2)c1cccs1 | 2430 nM |
| Cc1ccccc1OCC(=O)Nc1cccc(C(=O)O)c1 | 1240 nM |
| O=C(N/N=C/c1cc(Cl)ccc1O)c1cccnc1 | 1630 nM |
| CC(C)Oc1ccc(C(=O)Nc2nc3ccccc3[nH]2)cc1 | 1650 nM |
| COC(=O)c1ccc2nc(Nc3nc4ccc(F)cc4s3)sc2c1 | 6.98 nM |
| COc1ccc(C(=O)N/N=C/c2cc(Br)ccc2O)cc1OC | 1560 nM |
| CCN(CC)S(=O)(=O)c1cc(OC)ccc1N=Nc1ccc(O)c2ncccc12 | 2030 nM |
| O=C(Nc1cccc(O)c1)c1cc(-c2ccc3c(c2)OCO3)on1 | 2060 nM |
| CN(C(=O)COC(=O)/C=C/c1cccc([N+](=O)[O-])c1)C1CCS(=O)(=O)C1 (stereo unspecified) | 518 nM |
| C[C@@H]1O[C@@H](O[C@H]2C[C@@H](O)[C@]3(CO)[C@H]4[C@H](O)C[C@]5(C)[C@@H](C6=CC(=O)OC6)CC[C@]5(O)[C@@H]4CC[C@]3(O)C2)[C@H](O)[C@H](O)[C@H]1O | 165 nM |
| CCc1ccc(C(=O)Nc2nc3ccccc3[nH]2)cc1 | 2830 nM |
